# According to patent US20240000075A1, “FUNGICIDAL ARYL AMIDINES” (CORTEVA AGRISCIENCE LLC, priority 2020, published 2024):
# Read-outs that look alike come from different tables or passages of the source.
# Assays:
# Puccinia triticina = assay: Wheat brown rust, whole-plant fungicidal activity (PUCCRT); format: in vivo, Puccinia triticina on wheat plants (variety 'Yuma'); conditions: 24 h, 1DP (1 day protectant), read-out: % Disease Control Rating PUCCRT
# Description: Technical grades of materials were dissolved in acetone, which were then mixed with nine volumes of water (H2O) containing 110 ppm Triton X-100. The fungicide solutions were applied onto wheat seedlings using an automated booth sprayer to run-off. All sprayed plants were allowed to air dry prior to further handling. All fungicides were evaluated using the aforementioned method for their activity vs. all target diseases, unless stated otherwise.
# Example B: Evaluation of Fungicidal Activity: Wheat Brown Rust (Puccinia triticina; Synonym: Puccinia recondita f sp. tritici; Bayer Code PUCCRT)
# Wheat plants (variety ‘Yuma’) were grown from seed in a greenhouse in soil-less potting mix until the first leaf was fully emerged, with 7-10 seedlings per pot. These plants were inoculated with an aqueous spore suspension of Puccinia triticina after fungicide treatments. After inoculation, the plants were kept in a dark dew room with 100% relative humidity overnight to permit spores to germinate and infect the leaf. The plants were then transferred to a greenhouse for disease to develop. Fungicide formulation, application and disease assessment followed the procedures as described in Example A.
# Rhynchosporium commune = assay: Leaf blotch of barley, whole-plant fungicidal activity (RHYNSE); format: in vivo; conditions: 24 h, 1DP (1 day protectant), read-out: % Disease Control Rating RHYNSE
# Description: Technical grades of materials were dissolved in acetone, which were then mixed with nine volumes of water (H2O) containing 110 ppm Triton X-100. The fungicide solutions were applied onto wheat seedlings using an automated booth sprayer to run-off. All sprayed plants were allowed to air dry prior to further handling. All fungicides were evaluated using the aforementioned method for their activity vs. all target diseases, unless stated otherwise. Example D: Evaluation of Fungicidal Activity: Leaf Blotch of Barley (Rhynchosporium commune; Bayer Code […]) Barley plants (variety 'Harrington') were grown from seed in a greenhouse in soil-less potting mix until the first leaf was fully emerged, with 7-10 seedlings per pot. These plants were inoculated with an aqueous spore suspension of Rhynchosporium commune after fungicide treatments. After inoculation, the plants were kept in a dark dew room with 100% relative humidity for two days to permit spores to germinate and infect the leaf. The plants were then transferred to a greenhouse for disease to develop. Fungicide formulation and application were made as described in Example A. Disease assessment was conducted as described in Example A.
# Phakopsora pachyrhizi = assay: Asian soybean rust, whole-plant fungicidal activity (PHAKPA); format: in vivo; conditions: read-out: % Disease Control Rating PHAKPA
# Description: Example C: Evaluation of Fungicidal Activity: Asian Soybean Rust (Phakopsora pachyrhizi; Bayer Code […]) Technical grades of materials were dissolved in acetone, which were then mixed with nine volumes of H2O containing 0.011% Tween-20. The fungicide solutions were applied onto soybean seedlings using an automated booth sprayer to run-off. All sprayed plants were allowed to air dry prior to further handling. Soybean plants (variety 'Williams 82') were grown in soil-less potting mix, with one plant per pot. Ten-day-old seedlings were used for testing. Plants were inoculated as described in Example A. Plants were incubated for 24 h in a dark dew room with 100% relative humidity then transferred to a growth room for disease to develop. Fungicide formulation and application were made as described in Example A. When disease symptoms were fully expressed, disease severity was assessed on the sprayed leaves on a scale of 0 to 100 percent. Percent disease control was calculated using the ratio of disease severity on treated plants relative to untreated plants.
# Zymoseptoria tritici = assay: Septoria leaf blotch of wheat, whole-plant fungicidal activity (SEPTTR); format: in vivo, Zymoseptoria tritici on wheat plants (variety 'Yuma'); conditions: read-out: % Disease Control Rating SEPTTR
# Description: Example A: Evaluation of Fungicidal Activity: Septoria Leaf Blotch of Wheat (Zymoseptoria tritici; Bayer Code […]) Technical grades of materials were dissolved in acetone, which were then mixed with nine volumes of water (H2O) containing 110 ppm Triton X-100. The fungicide solutions were applied onto wheat seedlings using an automated booth sprayer to run-off. All sprayed plants were allowed to air dry prior to further handling. All fungicides were evaluated using the aforementioned method for their activity vs. all target diseases, unless stated otherwise. Wheat plants (variety 'Yuma') were grown from seed in a greenhouse in soil-less potting mix until the first leaf was fully emerged, with 7-10 seedlings per pot. These plants were inoculated with an aqueous spore suspension of Zymoseptoria tritici either 3 days prior to fungicide treatment (3 day curative; 3DC) or 1 day after fungicide treatment (1 day protectant; 1DP). After inoculation the plants were kept in 100% relative humidity for three days to permit spores to germinate and infect the leaf. The plants were then transferred to a greenhouse for disease to develop. When disease symptoms were fully expressed on the 1st leaves of untreated plants, infection levels were assessed on a scale of 0 to 100 percent disease severity. Percent disease control was calculated using the ratio of disease severity on treated plants relative to untreated plants.
Structure (SMILES),pest or weed control at 200 ppm (Puccinia triticina) [%],pest or weed control at 200 ppm (Rhynchosporium commune) [%],"pest or weed control at 200 ppm (Phakopsora pachyrhizi; 24 h, 1DP (1 day protectant)) [%]","pest or weed control at 200 ppm (Phakopsora pachyrhizi; 72 h, 3DC (3 day curative)) [%]","pest or weed control at 200 ppm (Zymoseptoria tritici; 24 h, 1DP (1 day protectant)) [%]","pest or weed control at 200 ppm (Zymoseptoria tritici; 72 h, 3DC (3 day curative)) [%]"
CCc1ccc(CC(=O)c2cc(C)c(/N=C/N(C)CC)cc2C)cc1 [Compound 6],> 85,> 85,> 85,> 85,> 85,20 to 50
CCN(C)/C=N/c1ccc(C(=O)Cc2ccc(C)cc2F)c(C)c1C [Compound 11],< 20,< 20,> 85,> 85,< 20,< 20
CCN(C)/C=N/c1ccc(C(=O)Cc2ccc(C)cc2)c(C)c1C [Compound 12],< 20,< 20,50 to 85,50 to 85,< 20,< 20
CCN(C)/C=N/c1ccc(C(=O)Cc2ccccc2)c(C)c1C [Compound 16],< 20,< 20,50 to 85,> 85,< 20,< 20
CCN(C)/C=N/c1cc(C)c(C(=O)C2CCCC2)cc1C [Compound 17],> 85,> 85,> 85,> 85,50 to 85,< 20
CCN(C)/C=N/c1cc(C)c(C(=O)Cc2ccccc2F)cc1C [Compound 18],50 to 85,> 85,> 85,> 85,50 to 85,< 20
CCN(C)/C=N/c1cc(C)c(C(=O)CCC(F)(F)F)cc1C [Compound 19],> 85,20 to 50,> 85,> 85,< 20,20 to 50
CCN(C)/C=N/c1cc(C)c(C(=O)Cc2ccc(F)cc2F)cc1C [Compound 20],> 85,> 85,> 85,> 85,< 20,< 20
CCN(C)/C=N/c1cc(C)c(C(=O)CC(C)(C)C)cc1C [Compound 21],> 85,> 85,> 85,> 85,50 to 85,< 20
CCN(C)/C=N/c1cc(C)c(C(=O)CCC(C)C)cc1C [Compound 22],> 85,> 85,> 85,> 85,< 20,< 20
CCN(C)/C=N/c1cc(C)c(C(=O)Cc2c(F)cc(F)cc2F)cc1C [Compound 23],> 85,> 85,> 85,> 85,20 to 50,< 20
CCN(C)/C=N/c1cc(C)c(C(=O)Cc2cccc(C(=O)OC)c2)cc1C [Compound 24],> 85,< 20,< 20,< 20,< 20,< 20
CCN(C)/C=N/c1cc(C)c(C(=O)C2CCC2)cc1C [Compound 25],> 85,> 85,> 85,> 85,20 to 50,< 20
CCN(C)/C=N/c1cc(C)c(C(=O)C2CCCCC2)cc1C [Compound 26],> 85,> 85,> 85,> 85,> 85,20 to 50
